In data set [1] the test system is human blood platelets in platelet-rich-plasma (ADP-induced aggregation). As to the kind of experiment: In vitro inhibition of ADP-induced human platelet aggregation (aggregometer method of Born). Format: cell-based. As for the experimental part: The aggregometer method of Born, G. V. R., J. Physiol., (London), 162, 67-68, (1962) as modified by Mustard, J. F., et al., J. Lab. Clin. Med., 64, 548-599, (1964) was used to assess the in vitro activity of the various compounds as to the inhibition of adenosine diphosphate (ADP) and collagen-induced platelet aggregation. The human volunteer donor's arm is cleansed with 70% ethyl alcohol. A sterile 20 ml syringe and needle are used to withdraw 20 ml of blood. The blood is immediately added to a test tube containing 3.8% sodium citrate to prevent clotting (1 part citrate to 9 parts blood).
Platelet rich plasma (PRP) was separated by centrifugation for 10 minutes at 1000 rpm (140 g) from citrated (3.8%) human blood. All glassware used for preparation of PRP is silicon treated. ADP in final concentration of 0.5 mcg/mL or 0.05 mL of a collagen suspension prepared according to the method described by Evans, G., et al., J. Exp. Med., 128, 877-894, (1968) was used to induce aggregation. The various compounds tested were dissolved in dimethylsulfoxide (DMSO) so that 5 mcl added to the platelet rich plasma would yield the desired test concentration. Vehicle control trials were done and compared with aggregation induced in platelet rich plasma containing various concentrations of the test compounds. Dose response curves were obtained and Inhibitor Concentration (IC50) values calculated.
The target compounds were evaluated as inhibitors of ADP-induced aggregation of human blood platelets in platelet-rich-plasma (PRP) in vitro.

Data set [2] is described as follows: Aqueous solubility. The settings on record: water. It counts as physicochemical.
[3] abbreviates: 0.05 h, ADP 0.5 mcg/mL, human PRP, standard protocol: about 3 minutes incubation prior to agonist, read-out: IC50 vs ADP in human PRP.

Usually solubility stands for the dissolved amount per volume that the medium holds. The low end stands for a poorly soluble substance, the high end for a readily soluble substance.

Converted amounts (≈) assume the structure as drawn. Counter-ions that a name gives are not always drawn. Like-named read-outs stand apart in the source and are kept apart here. Bounds are passed on as bounds.

On to `CCOC(=O)NCCCOc1ccc2nc3[nH]c(=O)[nH]c3cc2c1` [Cmpd 7a], for which the IC50 in data set [1] (setting [3]) was 0.035 µg/mL (≈ 0.106 µM). Besides, the solubility in data set [2] was under 10000 µg/mL.

With `CN(C(=O)NCCCOc1ccc2nc3[nH]c(=O)[nH]c3cc2c1)C1CCCCC1` [Cmpd 7b, N-Cyclohexyl-N'-[3-[(2,3-dihydro-2-oxo-1H-imidazo[4,5-b]quinolin-7-yl)oxy]propyl]-N-methylurea], the IC50 in data set [1] (setting [3]) turned out to be 0.04 µg/mL (≈ 0.101 µM). The molecule further returned a solubility in data set [2] of under 10000 µg/mL.

Turning to `Cl.O=C(NCCCOc1ccc2nc3[nH]c(=O)[nH]c3cc2c1)NC1CCCCC1` [Cmpd 7c, N-Cyclohexyl-N'-[3-[(2,3-dihydro-2-oxo-1H-imidazo[4,5-b]quinolin-7-yl)oxy]propyl]urea hydrochloride], the IC50 in data set [1] (setting [3]) was 0.3 µg/mL. Also, in data set [2], the solubility is under 10000 µg/mL.

For the molecule `O=C(NCCCOc1ccc2nc3[nH]c(=O)[nH]c3cc2c1)N1CCOCC1` [Cmpd 7d], the IC50 in data set [1] (setting [3]) came out at 1.2 µg/mL (≈ 3.23 µM). Further, in data set [2], the solubility was under 10000 µg/mL.

For `Cl.O=C(NCCCOc1ccc2nc3[nH]c(=O)[nH]c3cc2c1)N1CCC(Cc2ccccc2)CC1` [Cmpd 7e, N-[3-(2,3-dihydro-2-oxo-1H-imidazo[4,5-b]quinolin-7yloxy)propyl]-4-(phenylmethyl)-1-piperidinecarboxamide hydrochloride], the IC50 in data set [1] (setting [3]) was 0.08 µg/mL. In data set [2], this molecule came in with a solubility of under 200 µg/mL.

Take `Cl.Cl.O=C(NCCCOc1ccc2nc3[nH]c(=O)[nH]c3cc2c1)N1CCN(CC2CCCCC2)CC1` [Cmpd 7f, 4-(Cyclohexylmethyl)-N-[3-(2,3-dihydro-2-oxo-1H-imidazo[4,5-b]quinolin-7yloxy)propyl]-1-piperazinecarboxamide dihydrochloride]: the IC50 in data set [1] (setting [3]) was 0.04 µg/mL. Further, the solubility in data set [2] is over 20000 µg/mL.

`O=C(NCCCOc1ccc2nc3[nH]c(=O)[nH]c3cc2c1)N1CCN(CC2CCCCCC2)CC1` [Cmpd 7g, 4-(Cycloheptylmethyl)-N-[3-(2.3-dihydro-2-oxo-1H-imidazo[4,5-b]quinolin-7yloxy)propyl]-1piperazinecarboxamide dihydrochloride]: the IC50 in data set [1] (setting [3]) stood at 0.03 µg/mL. The same molecule showed a solubility in data set [2] of 2000 µg/mL.

Consider `Cl.Cl.O=C(NCCCOc1ccc2nc3[nH]c(=O)[nH]c3cc2c1)N1CCN(CC2CCCC2)CC1` [Cmpd 7h, 4-(Cyclopentylmethyl)-N-[3-(2,3-dihydro-2-oxo-1H-imidazo[4,5-b]quinolin-7yloxy)propyl]-1-piperazinecarboxamide dihydrochloride], for which the IC50 in data set [1] (setting [3]) stood at 0.05 µg/mL. The molecule further returned a solubility in data set [2] of 700 µg/mL.

Regarding `Cl.Cl.O=C(NCCCOc1ccc2nc3[nH]c(=O)[nH]c3cc2c1)N1CCN(CCC2CCCCC2)CC1` [Cmpd 7i, 4-(Cyclohexylethyl)-N-[3-(2,3-dihydro-2-oxo-1H-imidazo [4,5-b]quinolin-7yloxy)propyl]-1-piperazinecarboxamide dihydrochloride], in data set [1] (setting [3]), the IC50 came out at 0.04 µg/mL. This molecule registered a solubility in data set [2] of 500 µg/mL.

For `O=C(NCCCOc1ccc2nc3[nH]c(=O)[nH]c3cc2c1)N1CCN(CC2CCCCO2)CC1` (stereo not drawn) [Cmpd 7j, N-[3-(2,3-dihydro-2-oxo-1H-imidazo[4,5-b]quinolin-7yloxy)propyl-4-(tetrahydro-2H-pyran-2-yl)methyl]-1-piperazinecarboxamide dihydrochloride ethanol solvate], the IC50 in data set [1] (setting [3]) was 0.09 µg/mL. Also, the solubility in data set [2] was over 20000 µg/mL.

Consider `CC(C)CN1CCN(C(=O)NCCCOc2ccc3nc4[nH]c(=O)[nH]c4cc3c2)CC1.Cl.Cl` [Cmpd 7k, N-[3-(2,3-dihydro-2-oxo-1H-imidazo[4,5-b]quinolin-7yloxy)propyl]-4-(2-methylpropyl]-1-piperazinecarboxamide dihydrochloride], for which the IC50 in data set [1] (setting [3]) was 0.09 µg/mL. Also, in data set [2], the solubility was over 20000 µg/mL.

Take `CCC(CC)CN1CCN(C(=O)NCCCOc2ccc3nc4[nH]c(=O)[nH]c4cc3c2)CC1.Cl.Cl` [Cmpd 7l, N-[3-(2,3-dihydro-2-oxo-1H-imidazo[4,5-b]quinolin-7yloxy)propyl]-4-(2-ethylbutyl)-1-piperazinecarboxamide dihydrochloride]: in data set [1] (setting [3]), the IC50 is 0.022 µg/mL. In data set [2], the solubility was over 20000 µg/mL.

`CCCC(CCC)CN1CCN(C(=O)NCCCOc2ccc3nc4[nH]c(=O)[nH]c4cc3c2)CC1.Cl.Cl` [Cmpd 7m, N-[3-(2,3-dihydro-2-oxo-1H-imidazo[4,5-b]quinolin-7yloxy)propyl]-4-(2-propylpentyl]-1-piperazinecarboxamide dihydrochloride]: in data set [1] (setting [3]), the IC50 came out at 0.07 µg/mL. In data set [2], this molecule showed a solubility of 500 µg/mL.

As for `O=C(NCCCOc1ccc2nc3[nH]c(=O)[nH]c3cc2c1)N1CCNCC1` [Cmpd 7n, N-[3-(2.3-dihydro-2-oxo-1H-imidazo4.5-b]quinolin-7yloxy)propyl]-1-piperazinecarboxamide dihydrochloride ethanol solvate], in data set [1] (setting [3]), the IC50 is 3.8 µg/mL. In addition, the solubility in data set [2] is under 500 µg/mL.

Take `O=C(NCCCOc1ccc2nc3[nH]c(=O)[nH]c3cc2c1)N1CCN(Cc2ccccc2)CC1` [Cmpd 7o, N-[3-(2,3-dihydro-2-oxo-1H-imidazo[4,5-b]quinolin-7yloxy)propyl]-4-(phenylmethyl)-1-piperazinecarboxamide dihydrochloride ethanol solvate]: the IC50 in data set [1] (setting [3]) was found to be 0.18 µg/mL. In data set [2], this molecule registered a solubility of over 20000 µg/mL.

In the case of `O=C(NCCCOc1ccc2nc3[nH]c(=O)[nH]c3cc2c1)N1CCN(Cc2ccc(Cl)cc2)CC1` [Cmpd 7p, N-[3-(2,3-dihydro-2-oxo-1H-imidazo[4,5-b]quinolin-7yloxy)propyl]-4-(4-chlorophenyl)methyl)-1-piperazine carboxamide dihydrochloride], in data set [1] (setting [3]), the IC50 came out at 0.17 µg/mL. In data set [2], this molecule showed a solubility of 200 µg/mL.

On to `O=C(NCCCOc1ccc2nc3[nH]c(=O)[nH]c3cc2c1)N1CCN(Cc2ccc(F)cc2)CC1` [Cmpd 7q, N-[3-(2,3-dihydro-2-oxo-1H-imidazo[4,5-b]quinolin-7yloxy)propyl]-4-[(4-fluorophenyl)methyl)-1-piperazine carboxamide dihydrochloride ethanol solvate], for which the IC50 in data set [1] (setting [3]) came out at 0.205 µg/mL. Besides, in data set [2], the solubility is over 20000 µg/mL.

Regarding `O=C(NCCCOc1ccc2nc3[nH]c(=O)[nH]c3cc2c1)N1CCN(CCc2ccccc2)CC1` [Cmpd 7r, N-[3-(2,3-dihydro-2-oxo-1H-imidazo[4,5-b]quinolin-7yloxy)propyl]-4-[(2-phenylethyl)-1-piperazinecarboxamidedihydrochloride], the IC50 in data set [1] (setting [3]) turned out to be 0.17 µg/mL. Besides, the solubility in data set [2] is 250 µg/mL.

In the case of `O=C(NCCCOc1ccc2nc3[nH]c(=O)[nH]c3cc2c1)N1CCN(Cc2cccs2)CC1` [Cmpd 7s, N-[3-(2,3-dihydro-2-oxo-1H-imidazo[4,5-b]quinolin-7yloxy)propyl]-4-[(2-thienyl)methyl)-1-piperazinecarboxamide dihydrochloride ethanol solvate], the IC50 in data set [1] (setting [3]) is 0.09 µg/mL. In data set [2], this molecule displayed a solubility of over 10000 µg/mL.

As to `O=C(NCCCOc1ccc2nc3[nH]c(=O)[nH]c3cc2c1)N1CCN(Cc2ccsc2)CC1` [Cmpd 7t, N-3-(2,3-dihydro-2-oxo-1H-imidazo[4,5-b]quinolin-7yloxy)propyl]-4-[(3-thienyl)methyl)-1-piperazinecarboxamide dihydrochloride], the IC50 in data set [1] (setting [3]) amounted to 0.15 µg/mL. In data set [2], this molecule returned a solubility of 3000 µg/mL.

Consider `Cl.Cl.O=C(NCCCOc1ccc2nc3[nH]c(=O)[nH]c3cc2c1)N1CCC(N2CCCCC2)CC1` [Cmpd 7u, N-[3-(2,3-dihydro-2-oxo-1H-imidazo[4,5-b]quinolin-7yloxy)propyl]-4-(1-piperidinyl)-1-piperidinecarboxamide dihydrochloride], for which the IC50 in data set [1] (setting [3]) is 5.2 µg/mL. This molecule had a solubility in data set [2] of over 20000 µg/mL.

For `Cl.Cl.O=C(NCCCOc1ccc2nc3[nH]c(=O)[nH]c3cc2c1)N1CCN(c2ncccn2)CC1` [Cmpd 7v, N-[3-(2,3-dihydro-2-oxo-1H-imidazo[4,5-b]quinolin-7yloxy)propyl]-4-(2-pyrimidinyl)-1-piperazinecarboxamide dihydrochloride], in data set [1] (setting [3]), the IC50 was found to be 0.17 µg/mL. Besides, the solubility in data set [2] was 100 µg/mL.

As for `O=C(NCCCOc1ccc2nc3[nH]c(=O)[nH]c3cc2c1)N1CCN(c2ccccn2)CC1` [Cmpd 7w, N-[3-(2,3-dihydro-2-oxo-1H-imidazo[4,5-b]quinolin-7yloxy)propyl]-4-(2-pyridyl)-1-piperazinecarboxamide dihydrochloride ethanol solvate], the IC50 in data set [1] (setting [3]) turned out to be 0.38 µg/mL. In data set [2], the solubility is 500 µg/mL.

In the case of `O=C(CCCOc1ccc2nc3[nH]c(=O)[nH]c3cc2c1)N1CCN(CC2CCCCC2)CC1` [formula (3) compound, reference compound], the IC50 in data set [1] (Homo sapiens, incubation with PRP for about 15 minutes prior to adding ADP, read-out: observed IC50, ADP-induced aggregation) came to 0.041 µg/mL; in data set [1] (Homo sapiens, read-out: concentration providing 50% inhibition of ADP-induced aggregation, incubation with PRP for about 3 minutes prior to addition of the agonist), 0.182 µg/mL.
